# In patent publication US20200276164A1, “PHARMACEUTICAL COMBINATIONS FOR THE TREATMENT OF CANCER” (The Queen's University of Belfast, priority 2017, published 2020):
# Assays:
# hypoxic LNCaP cells [1] = experiment: ELISA of secreted VEGF and IL-8 from hypoxic LNCaP cells; assay type: cell-based, human; details: MDV3100 10 μM, relative to DMSO
# Procedure: (§1) Authenticated PC3 (ATCC CRL-1435), LNCaP (ATCC CRL-1740) and 22Rv1 (ATCC CRL-2505) cells were cultured as described in Seaton et al. (Carcinogenesis 2008; 29: 1148-56). C4-2B cells were maintained in RPMI 1640 supplemented with 10% fetal calf serum (FCS). MDV3100-sensitive (LNCaP-Par) and resistant (LNCaP-EnzR) cells were obtained from Prof. Vander Griend, University of Chicago, Chicago, Ill., and were cultured as described in Kregel et al. (Oncotarget 2016; 7: 26259-74). HUVEC (ATCC CRL-1730) cells were maintained in Endothelial Cell Growth Medium (#CC-3162, Lonza, UK). For experiments involving hypoxia (0.1% 02), cells were cultured as previously reported (Maxwell et al., Oncogene 2007; 26: 7333-45). Human IL-8 monoclonal antibody (#MAB208), human VEGF mAb (#AB293NA) and isotype-matched IgG (#MAB002) were obtained from R&D Systems (UK). MDV3100 (#S1250) was obtained from Selleckchem (Germany). Cells were regularly tested to ensure they were free of mycoplasma contamination.
# Secreted IL-8 (#M1918, Pelikine, Mast Group, UK), and VEGF (#DY293B, R&D Systems, UK) were measured by ELISA as per manufacturer's instructions.
# LNCaP cells [2] = experiment: LNCaP cell viability (MTT assay), normoxia or hypoxia; assay type: cell-based, human; details: 10 μM, 72 h
# Procedure: as §1
# (§2) Cell viability was assessed by 3-(4,5-dimethylthiazol-2-yl)-2,5-diphenyltetrazolium bromide (MTT) assay as previously described (Maxwell et al., Oncogene 2007; 26: 7333-45).
# LNCaP tumours = experiment: Tumour oxygenation measurement in LNCaP xenograft model; assay type: in vivo, Balb/c SCID mice; details: MDV3100 4 mg/kg p.o. daily, nAbs i.p. 3x/week (anti-IL-8 50 μg/ml, anti-VEGF 100 μg/ml), over 28 days
# Procedure: Tumour oxygenation was measured once weekly as previously described (Ming et al., Int J Cancer 2013; 132:1323-32).
# hypoxic LNCaP cells [3] = experiment: qPCR of hypoxia-induced gene expression in LNCaP cells; assay type: cell-based, human; details: MDV3100 10 μM
# Procedure: as §1
# Nucleic acid samples were prepared and analyzed as previously described (Maxwell et al., Oncogene 2007; 26: 7333-45; Maxwell et al., Eur Urol 2013; 64: 177-88). Primer sequences were as follows: AR: Forward, 5′-[…]-3′ (SEQ ID NO: 1); Reverse, 5′-[…]-3′ (SEQ ID NO: 2); PSA/KLK3: Forward, 5′-[…]-3′ (SEQ ID NO: 3); Reverse, 5′-TTGCGCACACACGTCATT-3′ (SEQ ID NO: 4). Primer sequences for 18s, BCL2, CAIX, IL-8, and VEGF have been previously reported (Maxwell et al., Oncogene 2007; 26: 7333-45; Lekas et al., Urol Res 1997; 25: 309-14).
# [4] = test system: endothelial cell tubule formation; experiment: In vitro angiogenesis (V2A vascular tubule formation) assay; assay type: cell-based; details: 10 days; for stimulation of endothelial cell tubule formation: VEGF 2 ng/ml or rh-IL-8 3 nM
# Procedure: The V2A angiogenesis assay (#ZHA-4000, Cellworks, UK) was carried out according to the manufacturer's instruction. Cells were allowed to settle for 4 days prior to treatment. Treatments were carried out in duplicate and were replenished every 2 days for 10 days. For treatments involving conditioned media, PC3 or LNCaP cells were treated as required for 24 h, media harvested and stored at −20° C. Vessels were visualized at 4× magnification. Vessel density was measured in four fields per well using AngioSys 2.0 software (Cellworks, UK).
# LNCaP cells [5] = experiment: PARP immunoblot in LNCaP cells; assay type: cell-based, human; details: 10 μM, 72 h
# Procedure: (§3) Immunoblotting was performed as previously described (McCourt et al., Clin Cancer Res 2012; 18:3822-33). Antibodies were obtained as follows: AR, Millipore (#PG-21, UK); AR-V7 (#ab198394) & PARP (#14-6667-82), Abcam (UK); Bcl-2 (#4223), Cell Signalling Technology (The Netherlands); c-FLIP (#AG-20B-0056), Adipogen (Switzerland); RELA(p65) (#sc-372), Santa Cruz (CA, USA); GAPDH (#MCA4740), Biorad (UK).
# PC3 cells [6] = experiment: Chick embryo experimental metastasis model (CAM assay), PC3 colonization; assay type: in vivo; details: over five days; 0.1 mL of 20 μM solution i.v. per embryo on days 1 and 2
# Procedure: Experimental metastasis assays were performed in chick embryos as described (Deryugina et al., Histochem Cell Biol 2008; 130: 1119-30). On day 12 of incubation, PC3 cells were injected directly into the blood circulation through an allantoic vein (1×10^5 cells in 0.1 mL serum-free medium per embryo). MDV3100 was delivered i.v. on days 1 and 2 after cell inoculations (0.1 mL of a 20 μM solution per embryo). On day 5, portions of the CAM were harvested to quantify the number of human tumour cells by human-specific Alu-qPCR as previously described (Deryugina et al., Cancer Res 2005; 65: 10959-69), using a standard curve generated by serial dilutions of human tumour cells within a constant number (1×10^6) of chick embryo fibroblasts.
# LNCaP xenograft = LNCaP xenograft study, tumour growth
# Procedure: MDV3100 (in 0.1% DMSO in corn oil) was administered orally (p.o). Vehicle control (VC) or MDV3100 (4 mg/kg, equivalent to 100 mg/day in men) was administered daily. Human IL-8 and VEGF nAbs were administered 3×/week via intraperitoneal (i.p.) injection, at a final concentration of 50 μg/ml and 100 μg/ml, respectively. IgG control was at a final concentration of 150 μg/ml.
# LNCaP cells (1×10^7 in Matrigel) were implanted on the rear dorsum of 8-10-week-old male Balb/c SCID mice. When tumour volume was 150-200 mm^3, mice were randomly assigned to treatment groups (3-5 per group). […] Mice were sacrificed at day 28 or day 35. Tumour growth over 28 days (% T/C) was calculated using the equation: % T/C=(mean tumour volume on day 28−mean starting volume)/(mean control tumour volume on day 28−mean control starting volume)×100.
# Tumours were measured 3×/week using digital calipers. The length and width of the tumour was measured and the volume calculated using the formula volume=(length×width 2)/2. *, numbers in brackets show % T/C compared to enzalutamide alone at day 28; **, control is enzalutamide alone.
# [7] = HUVEC cell viability (MTT assay); assay type: cell-based; details: human, HUVEC cells, read-out: reduction of viability of HUVEC cells
# Procedure: as §2
# LNCaP tumour vasculature = experiment: Dorsal skin flap model, tumour vessel coverage; assay type: in vivo, Balb/c SCID mice
# Procedure: A viewing chamber was attached to a raised skin flap on the dorsal surface of the mouse (Balb/c SCID) and a fragment (˜0.5 mm) of LNCaP tumour was placed on the microvascular as previously described (9). Tumour vasculature was imaged weekly/4 weeks using a stereomicroscope. Image analysis was carried out using Touptek software (Touptek Photonics, China).
# HUVEC cells = experiment: HUVEC apoptosis (Annexin V/PI staining); assay type: cell-based, human; details: 10 μM, 72 h
# Procedure: FIG. 1 illustrates that MDV3100 treatment directly affects tumour vasculature. (A) Graph illustrating measured intra-tumoural oxygenation levels in growing MDV3100-treated LNCaP tumours, in the absence and presence of anti-IL-8 nAb (50 μg/ml) and/or anti-VEGF nAb (100 μg/ml). Values shown are mean (±SD). (B) Bar graph presenting time-dependent changes in tumour vessel density over time in MDV3100-treated LNCaP tumours, in the absence or presence of anti-IL-8 nAb (50 μg/ml) and/or anti-VEGF nAb (100 μg/ml). Stereological methods were used to analyze change in vessel density over time in all treatment groups and values were used to calculate percentage area covered by vessels. […] Data shown are the mean (±SEM) of four individual experiments. […] Viability was determined by MTT assay. […] Apoptosis was assessed by Annexin V/PI staining. […] The number of junctions was measured using AngioSys 2.0 software. […] For all data, statistically significant differences were determined using a Student's two-tailed t-test or Mann-Whitney U test:* p<0.05, ** p<0.01, *** p<0.001.
# To further understand the events contributing to MDV3100-promoted hypoxia, we studied the direct effect of MDV3100 administration upon vascular endothelial cells using two independent i assays. In agreement with previous studies, we detected AR mRNA in HUVEC endothelial cells by qPCR analysis (FIG. 1C, top panel). […]
# C4-2B cells = experiment: C4-2B cell viability assay; assay type: cell-based; details: 72 h
# Procedure: as §1, §2
# LNCaP-EnzR cells [8] = experiment: LNCaP-EnzR (MDV3100-resistant) cell viability assay; assay type: cell-based, human; details: MDV3100 10 μM, relative to DMSO control
# Procedure: as §1, §2
# PC3 cells [9] = experiment: PC3 cell viability assay; assay type: cell-based, human; details: increasing concentrations, 72 h, relative to DMSO vehicle control
# Procedure: as §2
# LNCaP-EnzR cells [10] = experiment: Immunoblot of PARP, AR, c-FLIP and Bcl-2 in LNCaP-EnzR cells; assay type: cell-based, human; details: MDV3100 10 μM, 72 h
# Procedure: as §3
compound,measurement,setting,value
"CNC(=O)c1ccc(N2C(=S)N(c3ccc(C#N)c(C(F)(F)F)c3)C(=O)C2(C)C)cc1F [MDV3100, Enzalutamide]",hypoxia-induced secretion of VEGF and IL-8 (ELISA),hypoxic LNCaP cells [1],failed to attenuate
same,viability of LNCaP cells,LNCaP cells [2]; hypoxic conditions,ineffective
same,viability of LNCaP cells,"LNCaP cells [2]; normoxia, relative to DMSO control",reduced the viability
same,intra-tumoural oxygen levels,LNCaP tumours,"rapid, profound drop in tumour oxygen levels over the initial 14 days"
same,hypoxia-induced up-regulation of BCL2 (qPCR),hypoxic LNCaP cells [3],failed to reverse
same,hypoxia-induced up-regulation of CAIX (qPCR),hypoxic LNCaP cells [3],failed to reverse
same,hypoxia-induced expression of VEGF and IL-8 (qPCR),hypoxic LNCaP cells [3]; relative to DMSO,failed to attenuate
same,tubule formation with conditioned medium from MDV3100-treated PC3 cells,[4]; CM of PC3 cells cultured with MDV3100 10 μM,no detrimental effect on tubule formation
same,development of branching junctions (vascular tubule formation),[4]; MDV3100 10 μM,significantly impaired the development of branching junctions
same,full-length PARP protein (immunoblot),LNCaP cells [5]; hypoxic LNCaP cells,stabilization of PARP
same,full-length PARP protein (immunoblot),LNCaP cells [5]; normoxic LNCaP cells,loss of full-length PARP protein
same,PC3 colonization in the CAM assay,PC3 cells [6],significantly enhanced PC3 colonization
same,Tumour volume at day 28 (mm^3) (±SD),"LNCaP xenograft; day 28, MDV3100 4 mg/kg p.o. daily, antibodies i.p. 3x/week",423 (±90) mm^3
same,reduction in tumour volume / tumour growth,"LNCaP xenograft; treatment-day 28, over 28 days",59.5%
same,% T/C,LNCaP xenograft; tumour growth over 28 days versus vehicle control,39.0%
same,"cytotoxicity at 72 h, 10 μM",[7]; 10 μM,10%
same,"cytotoxicity at 72 h, 50 μM",[7]; 50 μM,17%
same,vessel coverage (percentage area covered by tumour vessels),LNCaP tumour vasculature; 14 days,5.2±2.2%
same,vessel coverage (percentage area covered by tumour vessels),LNCaP tumour vasculature; after 7 days of treatment,8.2±2.3%
same,vessel coverage (percentage area covered by tumour vessels),LNCaP tumour vasculature; day 21,10.3±3.1%
same,vessel coverage (percentage area covered by tumour vessels),LNCaP tumour vasculature; day 28,14.7±2.6%
same,induction of apoptosis in HUVEC cells,HUVEC cells; hypoxia,significantly enhanced
same,induction of apoptosis in HUVEC cells,HUVEC cells; normoxic culture conditions,minimal
same,sensitivity of C4-2B cells (viability),"C4-2B cells; hypoxia, 10 μM",reduced sensitivity
same,sensitivity of C4-2B cells (viability),C4-2B cells; normoxic culture conditions,intermediate sensitivity
same,viability of LNCaP-EnzR cells,LNCaP-EnzR cells [8],no effect
same,viability of PC3 cells,PC3 cells [9],unresponsive
same,expression of full-length PARP (immunoblot),LNCaP-EnzR cells [10],clearly increased
VEGF,stimulation of endothelial cell tubule formation,[4],directly stimulated endothelial cell tubule formation
rh-IL-8: exogenous rh-IL-8 (3 nM) added in the tubule formation assay,stimulation of endothelial cell tubule formation,[4],less potent in stimulating tubule formation
